The subject of the assay is Z33 G4 (radiolabeled) (DNA, G4) AAAGTGATGGTGGTGGGGGAAGGATTTTCGAAC
Nature of the assay: EMSA, displacement of bound DHX36 protein. The conditions noted are these: 100 mM KCl, 10 mM NaCl, 3.3 mM MgCl2, 10 mM EDTA; K-Res buffer pH 7.8, 37 °C, no ATP; DHX36 (4 nM) displaced from 4 nM G4; poly(dI:dC) present. On the technique in general: A gel shift assay detects complexes by their altered migration in electrophoresis.

As to `NCCOc1cc(C(=O)Nc2cc(OCCN)c3ccccc3n2)nc(C(=O)Nc2cc(OCCN)c3ccccc3n2)c1`, the IC50 (in general, the concentration at which inhibition is half-maximal) is recorded as 33 nM.

The values are drawn from article PMC4344499 (2015).
